In paper PMC6566410, “Novel Diamide-Based Benzenesulfonamides as Selective Carbonic Anhydrase IX Inhibitors Endowed with Antitumor Activity: Synthesis, Biological Evaluation and In Silico Insights” (International Journal of Molecular Sciences, 2019):

How the values were obtained:
UO-31 = assay: NCI one-dose SRB assay; type: cell-based; details: Homo sapiens; UO-31 (Renal Cancer), 1.00E-5 Molar, one dose; read-out: Growth Percent
Description: (§1) First, all diamide-based benzenesulfonamides herein reported 5a–h were screened for their antitumor activity at one dose (10^−5 M) assay against a panel of sixty cancer cell lines through the National Cancer Institute (NCI) Developmental Therapeutic Program (www.dtp.nci.nih.gov), according to US-NCI protocol. The cell growth and cell viability were evaluated using the sulforhodamine B (SRB) colorimetric assay.
The obtained data were reported as mean-graph of the percentage growth of the different treated tumour cells (Supplementary Materials). Exploration of results for this assay confirmed that the examined diamide-based benzenesulfonamides 5a–h had non-significant activity towards most NCI cancer cell lines.
(§2) This assay was carried out according to the protocol of the Drug Evaluation Branch, NCI, Bethesda. The cell growth and cell viability were evaluated using the sulforhodamine B (SRB) colorimetric assay, as reported earlier.

hCA I = hCA I (Homo sapiens, UniProt P00915); assay: stopped-flow CO2 hydrase assay
Chain of hCA I (P00915 whole entry): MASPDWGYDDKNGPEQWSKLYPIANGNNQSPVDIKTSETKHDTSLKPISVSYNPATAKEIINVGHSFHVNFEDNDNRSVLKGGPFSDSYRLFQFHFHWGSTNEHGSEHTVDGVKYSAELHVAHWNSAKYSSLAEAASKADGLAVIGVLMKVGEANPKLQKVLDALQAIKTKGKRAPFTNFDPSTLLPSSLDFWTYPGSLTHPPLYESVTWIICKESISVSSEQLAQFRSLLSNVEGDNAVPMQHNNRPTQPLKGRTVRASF

M14 = assay: NCI one-dose SRB assay; type: cell-based; details: Homo sapiens, M14 (Melanoma), 1.00E-5 Molar, read-out: Growth Percent
Description: as §1, §2

SNB-19 = assay: NCI one-dose SRB assay; type: cell-based; details: Homo sapiens, SNB-19 (CNS Cancer), 1.00E-5 Molar, read-out: Growth Percent
Description: as §1, §2

KM12 = assay: NCI one-dose SRB assay; type: cell-based; details: Homo sapiens, KM12 (Colon Cancer), 1.00E-5 Molar, read-out: Growth Percent
Description: as §1, §2

SK-MEL-2 = assay: NCI one-dose SRB assay; type: cell-based; details: Homo sapiens, SK-MEL-2 (Melanoma), 1.00E-5 Molar, read-out: Growth Percent
Description: as §1, §2

UACC-62 = assay: NCI one-dose SRB assay; type: cell-based; details: Homo sapiens, UACC-62 (Melanoma), 1.00E-5 Molar, read-out: Growth Percent
Description: as §1, §2

SK-MEL-28 = assay: NCI one-dose SRB assay; type: cell-based; details: Homo sapiens, SK-MEL-28 (Melanoma), 1.00E-5 Molar, read-out: Growth Percent
Description: as §1, §2

ACHN = assay: NCI one-dose SRB assay; type: cell-based; details: Homo sapiens, ACHN (Renal Cancer), 1.00E-5 Molar, read-out: Growth Percent
Description: as §1, §2

T-47D = assay: NCI one-dose SRB assay; type: cell-based; details: Homo sapiens, T47D, T-47D (Breast Cancer), 1.00E-5 Molar, read-out: Growth Percent
Description: as §1, §2

HS 578T = assay: NCI one-dose SRB assay; type: cell-based; details: Homo sapiens, HS 578T (Breast Cancer), 1.00E-5 Molar, read-out: Growth Percent
Description: as §1, §2

MOLT-4 = assay: NCI one-dose SRB assay; type: cell-based; details: Homo sapiens, MOLT-4 (Leukemia), 1.00E-5 Molar, read-out: Growth Percent
Description: as §1, §2

OVCAR-3 = assay: NCI one-dose SRB assay; type: cell-based; details: Homo sapiens, OVCAR-3 (Ovarian Cancer), 1.00E-5 Molar, read-out: Growth Percent
Description: as §1, §2

U251 = assay: NCI one-dose SRB assay; type: cell-based; details: Homo sapiens, U-251, U251 (CNS Cancer), 1.00E-5 Molar, read-out: Growth Percent
Description: as §1, §2

CCRF-CEM = assay: NCI one-dose SRB assay; type: cell-based; details: Homo sapiens, CCRF-CEM (Leukemia), 1.00E-5 Molar, read-out: Growth Percent
Description: as §1, §2

MALME-3M = assay: NCI one-dose SRB assay; type: cell-based; details: Homo sapiens, MALME-3M (Melanoma), 1.00E-5 Molar, read-out: Growth Percent
Description: as §1, §2

A549/ATCC = assay: NCI one-dose SRB assay; type: cell-based; details: Homo sapiens, A549/ATCC (Non-Small Cell Lung Cancer), 1.00E-5 Molar, read-out: Growth Percent
Description: as §1, §2

MDA-MB-468 = assay: NCI one-dose SRB assay; type: cell-based; details: Homo sapiens, MDA-MB-468 (Breast Cancer), 1.00E-5 Molar, read-out: Growth Percent
Description: as §1, §2

HT29 = assay: NCI one-dose SRB assay; type: cell-based; details: Homo sapiens, HT-29, HT29 (Colon Cancer), 1.00E-5 Molar, read-out: Growth Percent
Description: as §1, §2

MDA-MB-231/ATCC = assay: NCI one-dose SRB assay; type: cell-based; details: Homo sapiens, MDA-MB-231/ATCC (Breast Cancer), 1.00E-5 Molar, read-out: Growth Percent
Description: as §1, §2

SF-295 = assay: NCI one-dose SRB assay; type: cell-based; details: Homo sapiens, SF-295 (CNS Cancer), 1.00E-5 Molar, read-out: Growth Percent
Description: as §1, §2

HCT-116 = assay: NCI one-dose SRB assay; type: cell-based; details: Homo sapiens, HCT-116 (Colon Cancer), 1.00E-5 Molar, read-out: Growth Percent
Description: as §1, §2

LOX IMVI = assay: NCI one-dose SRB assay; type: cell-based; details: Homo sapiens, LOX IMVI (Melanoma), 1.00E-5 Molar, read-out: Growth Percent
Description: as §1, §2

HCC-2998 = assay: NCI one-dose SRB assay; type: cell-based; details: Homo sapiens, HCC-2998 (Colon Cancer), 1.00E-5 Molar, read-out: Growth Percent
Description: as §1, §2

NCI-H460 = assay: NCI one-dose SRB assay; type: cell-based; details: Homo sapiens, NCI-H460 (Non-Small Cell Lung Cancer), 1.00E-5 Molar, read-out: Growth Percent
Description: as §1, §2

PC-3 = assay: NCI one-dose SRB assay; type: cell-based; details: Homo sapiens, PC-3 (Prostate Cancer), 1.00E-5 Molar, read-out: Growth Percent
Description: as §1, §2

SW-620 = assay: NCI one-dose SRB assay; type: cell-based; details: Homo sapiens, SW-620 (Colon Cancer), 1.00E-5 Molar, read-out: Growth Percent
Description: as §1, §2

TK-10 = assay: NCI one-dose SRB assay; type: cell-based; details: Homo sapiens, TK-10 (Renal Cancer), 1.00E-5 Molar, read-out: Growth Percent
Description: as §1, §2

RPMI-8226 = assay: NCI one-dose SRB assay; type: cell-based; details: Homo sapiens, RPMI-8226 (Leukemia), 1.00E-5 Molar, read-out: Growth Percent
Description: as §1, §2

hCA II = hCA II (Homo sapiens, UniProt P00918); assay: stopped-flow CO2 hydrase assay

NS(=O)(=O)c1ccc(NC(=O)C(=Cc2ccc(Br)cc2)NC(=O)c2ccccc2)cc1 [Compound 5c, N-(1-(4-Bromophenyl)-3-oxo-3-((4-sulfamoylphenyl)amino)prop-1-en-2-yl)benzamide]
activity at 10 µM (UO-31): 77.2%
melting point: 210 to 212 °C
Ki (hCA I): 2400 nM
activity at 10 µM (M14): 109%
activity at 10 µM (SNB-19): 95.1%
activity at 10 µM (KM12): 102%
activity at 10 µM (SK-MEL-2): 97.3%
activity at 10 µM (UACC-62): 88.1%
activity at 10 µM (SK-MEL-28): 113%
activity at 10 µM (ACHN): 100%
activity at 10 µM (T-47D): 92.1%
activity at 10 µM (HS 578T): 93.9%
activity at 10 µM (MOLT-4): 89.5%
activity at 10 µM (OVCAR-3): 103%
activity at 10 µM (U251): 93.1%
activity at 10 µM (CCRF-CEM): 99.4%
activity at 10 µM (MALME-3M): 92.2%
activity at 10 µM (A549/ATCC): 102%
activity at 10 µM (MDA-MB-468): 99.9%
activity at 10 µM (HT29): 89.1%
activity at 10 µM (MDA-MB-231/ATCC): 105%
activity at 10 µM (SF-295): 99.2%
activity at 10 µM (HCT-116): 92%
activity at 10 µM (LOX IMVI): 99.7%
activity at 10 µM (HCC-2998): 103%
activity at 10 µM (NCI-H460): 107%
activity at 10 µM (PC-3): 92.7%
activity at 10 µM (SW-620): 104%
activity at 10 µM (TK-10): 102%
activity at 10 µM (RPMI-8226): 97.2%
Ki (hCA II): 252 nM

Cc1ccc(C=C(NC(=O)c2ccccc2)C(=O)Nc2ccc(S(N)(=O)=O)cc2)cc1 [Compound 5d, N-(3-Oxo-3-((4-sulfamoylphenyl)amino)-1-(p-tolyl)prop-1-en-2-yl)benzamide]
activity at 10 µM (UO-31): 87%
melting point: 255 to 258 °C
Ki (hCA I): 796 nM
activity at 10 µM (M14): 110%
activity at 10 µM (SNB-19): 103%
activity at 10 µM (KM12): 103%
activity at 10 µM (SK-MEL-2): 102%
activity at 10 µM (UACC-62): 99.4%
activity at 10 µM (SK-MEL-28): 118%
activity at 10 µM (ACHN): 108%
activity at 10 µM (T-47D): 101%
activity at 10 µM (HS 578T): 117%
activity at 10 µM (MOLT-4): 81.3%
activity at 10 µM (OVCAR-3): 111%
activity at 10 µM (U251): 99%
activity at 10 µM (CCRF-CEM): 102%
activity at 10 µM (MALME-3M): 99%
activity at 10 µM (A549/ATCC): 95.4%
activity at 10 µM (MDA-MB-468): 111%
activity at 10 µM (HT29): 103%
activity at 10 µM (MDA-MB-231/ATCC): 104%
activity at 10 µM (SF-295): 106%
activity at 10 µM (HCT-116): 99.3%
activity at 10 µM (LOX IMVI): 99%
activity at 10 µM (HCC-2998): 100%
activity at 10 µM (NCI-H460): 108%
activity at 10 µM (PC-3): 96.5%
activity at 10 µM (SW-620): 113%
activity at 10 µM (TK-10): 104%
activity at 10 µM (RPMI-8226): 107%
Ki (hCA II): 94.4 nM
